In ChEMBL document CHEMBL4706675, “Ulmusakidian, a new coumarin glycoside and antifungal phenolic compounds from the root bark of Ulmus davidiana var. japonica” (2021):
Active and inactive are the calls of the source. The calls are words filed in the database; no cut-off is given here.

Each compound was assayed on Candida albicans (assay: Antifungal activity against Candida albicans assessed as fungal growth inhibition).
Assay type: functional, organism-based

| SMILES | Activity |
| --- | --- |
| COc1ccc(-c2cc(=O)c3c(OC)cc(OC)cc3o2)cc1 | inactive |
| COc1cc(C(=O)OC[C@H]2O[C@@H](Oc3c(O)c(OC)cc4ccc(=O)oc34)[C@H](O)[C@@H](O)[C@@H]2O)cc(OC)c1O | inactive |
| COc1cc([C@@H]2Oc3c(OC)cc(CCCO)cc3[C@H]2CO)ccc1O[C@@H]1O[C@@H](C)[C@H](O)[C@@H](O)[C@H]1O | inactive |
| COc1cc(C(=O)OC[C@H]2O[C@@H](Oc3c(O)c(OC)cc4ccc(=O)oc34)[C@H](O)[C@@H](O)[C@@H]2O)ccc1O | inactive |
| COc1ccc(-c2cc(=O)c3c(O)cc(O)cc3o2)cc1 | inactive |
| COc1cc(C[C@@H](CO)[C@H](COC2OC[C@@H](O)[C@H](O)[C@H]2O)Cc2cc(OC)c(O)c(OC)c2)cc(OC)c1O (stereo not given in full) | inactive |
| COc1cc(O)c2c(=O)c(O[C@@H]3O[C@@H](C)[C@H](O)[C@@H](O)[C@H]3O)c(-c3ccc(O)c(O)c3)oc2c1 | inactive |
| COc1ccc(-c2oc3cc(OC)cc(OC)c3c(=O)c2OC)cc1 | inactive |
| COc1cc([C@H]2c3cc(O)c(OC)cc3C[C@@H](CO)[C@@H]2COC2OC[C@@H](O)[C@H](O)[C@H]2O)ccc1O (stereo not given in full) | inactive |
| COc1cc2c(cc1O)[C@H](c1cc(OC)c(O)c(OC)c1)[C@@H](COC1OC[C@@H](O)[C@H](O)[C@H]1O)[C@H](CO)C2 (stereo not given in full) | inactive |
